Key:
recombinant Aurora A = biological target: T1, recombinant Aurora A (Homo sapiens, UniProt O14965); assay: Aurora A (Aurora 2) inhibition assay, Z'-Lyte kinase assay; format: biochemical; conditions: ATP 10 μM, 1 h
T1 construct: purchased Upstate, Lake Placid, N.Y
T1 sequence (O14965 1-403): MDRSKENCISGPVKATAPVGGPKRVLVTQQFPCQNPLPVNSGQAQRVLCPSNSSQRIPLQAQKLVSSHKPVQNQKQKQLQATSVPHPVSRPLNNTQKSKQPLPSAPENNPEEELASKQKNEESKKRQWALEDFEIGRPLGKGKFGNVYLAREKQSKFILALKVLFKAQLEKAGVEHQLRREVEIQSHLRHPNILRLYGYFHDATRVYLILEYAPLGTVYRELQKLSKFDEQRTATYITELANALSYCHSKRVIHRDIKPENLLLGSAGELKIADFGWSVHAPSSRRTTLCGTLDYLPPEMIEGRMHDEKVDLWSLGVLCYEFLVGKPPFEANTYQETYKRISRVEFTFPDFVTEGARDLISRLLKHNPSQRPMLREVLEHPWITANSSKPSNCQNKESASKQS
Protocol: Compounds were tested for their potency against recombinant Aurora A (Upstate, Lake Placid, N.Y.) using the PanVera Z′-Lyte kinase assay kit—Ser/Thr 1 peptide (Invitrogen, Carlsbad, Calif.). Assays were carried out in kinase assay buffer (50 mM HEPES, pH 7.5, 10 mM MgCl2, 5 mM EGTA, 0.05% Brij-35, 2 mM DTT). Test compounds were initially dissolved in DMSO at 100× the highest tested concentration, then serially diluted to 4× test concentrations in kinase assay buffer. Next, Aurora A (final concentration 200-500 ng/mL), Z′-Lyte Ser/Thr 1 peptide (final concentration 2 μM) and ATP (final concentration 10 μM) were added according to the manufacturer's instructions. Assays were carried out in half-area 96-well white polystyrene assay plates (Corning, Corning, N.Y.) in a final volume of 20 μl. The reaction was allowed to proceed for 1 h at room temperature in the dark, at which point the development reagent and stop reagent were added according to the manufacturer's instructions. Coumarin (Ex. 400 nm, Em. 465 nm) and fluorescein (Ex. 400 nm, Em. 565 nm) fluorescence values were measured on a SpectraFluor Plus plate reader (Tecan, Durham, N.C.). The emission ratio (coumarin/fluorescein) was determined and used to calculate the percent phosphorylation for each well. Wells containing substrate but no kinase and wells containing a phosphopeptide control were used to set 0% and 100% phosphorylation values, respectively. Typically 20-40% of the substrate was phosphorylated in wells without inhibitor. Dose-response curves of relative Aurora A activity vs. inhibitor concentration were plotted with Grafit (Erithacus Software, Horley, Surrey, UK).

[1] = biological target: T2, N-terminal His-tagged human Src (Homo sapiens, UniProt P12931); assay: Src kinase inhibition assay (33P-ATP filter assay); format: biochemical
T2 construct: His (N); purchased Upstate USA Inc, 706 Forest Street, Charlottesville, Va

[2] = group with IC50 greater than 100 nM

T2 sequence (P12931 whole entry): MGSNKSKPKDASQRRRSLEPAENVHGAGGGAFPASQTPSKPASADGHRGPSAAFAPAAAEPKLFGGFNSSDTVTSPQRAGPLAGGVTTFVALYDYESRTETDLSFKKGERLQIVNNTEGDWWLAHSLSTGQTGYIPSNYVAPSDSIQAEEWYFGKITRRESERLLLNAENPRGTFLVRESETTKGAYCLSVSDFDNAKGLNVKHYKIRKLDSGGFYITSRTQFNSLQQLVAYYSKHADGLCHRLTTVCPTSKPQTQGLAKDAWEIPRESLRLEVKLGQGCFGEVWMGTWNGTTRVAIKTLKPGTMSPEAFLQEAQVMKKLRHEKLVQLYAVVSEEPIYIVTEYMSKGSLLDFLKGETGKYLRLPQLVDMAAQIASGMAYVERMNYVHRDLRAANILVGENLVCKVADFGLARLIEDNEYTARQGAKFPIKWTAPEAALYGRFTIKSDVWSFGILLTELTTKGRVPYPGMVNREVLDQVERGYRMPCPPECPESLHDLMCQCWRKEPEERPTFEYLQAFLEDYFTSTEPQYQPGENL

| SMILES | IC50 (recombinant Aurora A) [µM] | IC50 ([1]; 40 minutes at room temperature) [µM] | IC50 (recombinant Aurora A; [2]) [µM] | IC50 [1, 2] [µM] |
| --- | --- | --- | --- | --- |
| Cc1cc(Nc2cc(N3CCN(C)CC3)nc(-c3cc4ccccc4o3)n2)n[nH]1 [Compound 1, 2-(benzofuran-2-yl)-N-(5-methyl-1H-pyrazol-3-yl)-6-(4-methylpiperazin-1-yl)pyrimidin-4-amine] | ≤ 0.1 | ≤ 0.1 |  |  |
| Cc1cc(Nc2cc(N3CCN(C)CC3)nc(-c3cc4ccccc4n3C)n2)n[nH]1 [Compound 2, 2-(1-methyl-1H-indol-2-yl)-N-(5-methyl-1H-pyrazol-3-yl)-6-(4-methylpiperazin-1-yl)pyrimidin-4-amine] | ≤ 0.1 | ≤ 0.1 |  |  |
| Cc1cc(Nc2cc(N3CCC(O)CC3)nc(-c3cc4ccccc4n3C)n2)n[nH]1 [Compound 3, 1-(6-(5-methyl-1H-pyrazol-3-ylamino)-2-(1-methyl-1H-indol-2-yl)pyrimidin-4-yl)piperidin-4-ol] | ≤ 0.1 | ≤ 0.1 |  |  |
| Cc1cc(Nc2cc(N(C)CCN(C)C)nc(-c3cc4ccccc4n3C)n2)n[nH]1 [Compound 4, N^4-(2-(dimethylamino)ethyl)-N^4-methyl-2-(1-methyl-1H-indol-2-yl)-N^6-(5-methyl-1H-pyrazol-3-yl)pyrimidine-4,6-diamine] |  | ≤ 0.1 | ≤ 1 |  |
| Cc1cc(Nc2cc(NCCN3CCOCC3)nc(-c3cc4ccccc4n3C)n2)n[nH]1 [Compound 5, 2-(1-methyl-1H-indol-2-yl)-N^4-(5-methyl-1H-pyrazol-3-yl)-N^6-(2-morpholinoethyl)pyrimidine-4,6-diamine] |  | ≤ 0.1 | ≤ 1 |  |
| CC(=O)N1CCN(c2cc(Nc3cc(C)[nH]n3)nc(-c3cc4ccccc4n3C)n2)CC1 [Compound 6, 1-(4-(6-(5-methyl-1H-pyrazol-3-ylamino)-2-(1-methyl-1H-indol-2-yl)pyrimidin-4-yl)-piperazin-1-yl)ethanone] | ≤ 0.1 | ≤ 0.1 |  |  |
| Cc1cc(Nc2cc(N(C)CCN(C)C)nc(-c3ccccc3)n2)n[nH]1 [Compound 9, N^4-(2-(dimethylamino)ethyl)-N^4-methyl-N^6-(5-methyl-1H-pyrazol-3-yl)-2-phenylpyrimidine-4,6-diamine] |  |  | ≤ 1 | ≤ 1 |
| Cc1cc(Nc2cc(NCCN3CCN(C)CC3)nc(-c3ccccc3)n2)n[nH]1 [Compound 13, N^4-(5-methyl-1H-pyrazol-3-yl)-N^6-(2-(4-methylpiperazin-1-yl)ethyl)-2-phenylpyrimidine-4,6-diamine] |  |  | ≤ 1 | ≤ 1 |
| Cc1cc(Nc2cc(N3CCN(C)CC3)nc(-c3ccco3)n2)n[nH]1 [Compound 14, 2-(furan-2-yl)-N-(5-methyl-1H-pyrazol-3-yl)-6-(4-methylpiperazin-1-yl)-pyrimidin-4-amine] |  |  | ≤ 1 | ≤ 1 |
| Cc1cc(Nc2cc(N3CCN(C)CC3)nc(-c3ccccc3Cl)n2)n[nH]1 [Compound 37, 2-(2-chlorophenyl)-N-(5-methyl-1H-pyrazol-3-yl)-6-(4-methylpiperazin-1-yl)pyrimidin-4-amine] |  | ≤ 0.1 | ≤ 1 |  |
| Cc1cccc(-c2nc(Nc3cc(C)[nH]n3)cc(N3CCN(C)CC3)n2)c1 [Compound 39, N-(5-methyl-1H-pyrazol-3-yl)-6-(4-methylpiperazin-1-yl)-2-m-tolylpyrimidin-4-amine] | ≤ 0.1 | ≤ 0.1 |  |  |
| Cc1cc(Nc2cc(N3CCN(C)CC3)nc(-c3ccccc3C)n2)n[nH]1 [Compound 40, N-(5-methyl-1H-pyrazol-3-yl)-6-(4-methylpiperazin-1-yl)-2-o-tolylpyrimidin-4-amine] |  | ≤ 0.1 | ≤ 1 |  |
| Cc1cc(Nc2cc(N(C)CCN(C)C)nc(-c3cccc(Cl)c3)n2)n[nH]1 [Compound 49, 2-(3-chlorophenyl)-N^4-(2-(dimethylamino)ethyl)-N^4-methyl-N^6-(5-methyl-1H-pyrazol-3-yl)pyrimidine-4,6-diamine] |  | ≤ 0.1 | ≤ 1 |  |
| Cc1cccc(-c2nc(Nc3cc(C)[nH]n3)cc(N(C)CCN(C)C)n2)c1 [Compound 52, N^4-(2-(dimethylamino)ethyl)-N^4-methyl-N^6-(5-methyl-1H-pyrazol-3-yl)-2-m-tolylpyrimidine-4,6-diamine] |  |  | ≤ 1 | ≤ 1 |
| COc1ccc(-c2nc(Nc3cc(C)[nH]n3)cc(N(C)CCN(C)C)n2)cc1 [Compound 54, N^4-(2-(dimethylamino)ethyl)-2-(4-methoxyphenyl)-N^4-methyl-N^6-(5-methyl-1H-pyrazol-3-yl)pyrimidine-4,6-diamine] |  | ≤ 0.1 | ≤ 1 |  |
| COCCN(C)c1cc(Nc2cc(C)[nH]n2)nc(-c2cccc(Cl)c2)n1 [Compound 62, 2-(3-chlorophenyl)-N^4-(2-methoxyethyl)-N^4-methyl-N^6-(5-methyl-1H-pyrazol-3-yl)pyrimidine-4,6-diamine] |  |  | ≤ 1 | ≤ 1 |

More lines, now with the values ahead:

| IC50 (recombinant Aurora A) [µM] | IC50 ([1]; 40 minutes at room temperature) [µM] | IC50 (recombinant Aurora A; [2]) [µM] | IC50 [1, 2] [µM] | SMILES |
| --- | --- | --- | --- | --- |
|  |  | ≤ 1 | ≤ 1 | Cc1cc(Nc2cc(NC3CCOCC3)nc(-c3cc4ccccc4n3C)n2)n[nH]1 [Compound 7, N^4-(tetrahydro-2H-pyran-4-yl)-2-(1-methyl-1H-indol-2-yl)-N^6-(5-methyl-1H-pyrazol-3-yl)pyrimidine-4,6-diamine] |
| ≤ 0.1 |  |  |  | COCCNc1cc(Nc2cc(C)[nH]n2)nc(-c2ccccc2)n1 [Compound 10, N^4-(2-methoxyethyl)-N^6-(5-methyl-1H-pyrazol-3-yl)-2-phenylpyrimidine-4,6-diamine] |
| ≤ 0.1 |  |  | ≤ 1 | Cc1cc(Nc2cc(NCCN3CCOCC3)nc(-c3ccccc3)n2)n[nH]1 [Compound 11, N^4-(5-methyl-1H-pyrazol-3-yl)-N^6-(2-morpholinoethyl)-2-phenylpyrimidine-4,6-diamine] |
| ≤ 0.1 | ≤ 0.1 |  |  | Cc1cc(Nc2cc(NC3CCOCC3)nc(-c3ccccc3)n2)n[nH]1 [Compound 12, N^4-(tetrahydro-2H-pyran-4-yl)-N^6-(5-methyl-1H-pyrazol-3-yl)-2-phenylpyrimidine-4,6-diamine] |
|  |  | ≤ 1 | ≤ 1 | Cc1cc(Nc2cc(NC3CCOCC3)nc(-c3ccc(F)cc3)n2)n[nH]1 [Compound 19, 2-(4-fluorophenyl)-N^4-(5-methyl-1H-pyrazol-3-yl)-N^6-(tetrahydro-2H-pyran-4-yl)pyrimidine-4,6-diamine] |
|  |  | ≤ 1 | ≤ 1 | Cc1cc(Nc2cc(NC3CCOCC3)nc(-c3ccc(Cl)cc3)n2)n[nH]1 [Compound 22, 2-(4-chlorophenyl)-N^4-(5-methyl-1H-pyrazol-3-yl)-N^6-(tetrahydro-2H-pyran-4-yl)pyrimidine-4,6-diamine] |
| ≤ 0.1 | ≤ 0.1 |  |  | COc1cccc(-c2nc(Nc3cc(C)[nH]n3)cc(NC3CCOCC3)n2)c1 [Compound 29, 2-(3-methoxyphenyl)-N^4-(5-methyl-1H-pyrazol-3-yl)-N^6-(tetrahydro-2H-pyran-4-yl)pyrimidine-4,6-diamine] |
| ≤ 0.1 | ≤ 0.1 |  |  | Cc1cc(Nc2cc(N3CCN(C)CC3)nc(-c3ccc(F)cc3)n2)n[nH]1 [Compound 32, 2-(4-fluorophenyl)-N-(5-methyl-1H-pyrazol-3-yl)-6-(4-methylpiperazin-1-yl)pyrimidin-4-amine] |
| ≤ 0.1 | ≤ 0.1 |  |  | Cc1cc(Nc2cc(N3CCN(C)CC3)nc(-c3ccc(Cl)cc3)n2)n[nH]1 [Compound 35, 2-(4-chlorophenyl)-N-(5-methyl-1H-pyrazol-3-yl)-6-(4-methylpiperazin-1-yl)pyrimidin-4-amine] |
| ≤ 0.1 | ≤ 0.1 |  |  | Cc1ccc(-c2nc(Nc3cc(C)[nH]n3)cc(N3CCN(C)CC3)n2)cc1 [Compound 38, N-(5-methyl-1H-pyrazol-3-yl)-6-(4-methylpiperazin-1-yl)-2-p-tolylpyrimidin-4-amine] |
| ≤ 0.1 | ≤ 0.1 |  |  | COc1ccc(-c2nc(Nc3cc(C)[nH]n3)cc(N3CCN(C)CC3)n2)cc1 [Compound 41, 2-(4-methoxyphenyl)-N-(5-methyl-1H-pyrazol-3-yl)-6-(4-methylpiperazin-1-yl)pyrimidin-4-amine] |
| ≤ 0.1 | ≤ 0.1 |  |  | Cc1cc(Nc2cc(N3CCN(C)CC3)nc(-c3ccc(C(C)(C)C)cc3)n2)n[nH]1 [Compound 82, 2-(4-tert-butylphenyl)-N-(5-methyl-1H-pyrazol-3-yl)-6-(4-methylpiperazin-1-yl)pyrimidin-4-amine] |
